Experimental data taken from US12599676B2, “Cytotoxic imidazo[1,2-A]pyridine compounds and their use in therapy” (MyricX Pharma Limited, priority 2022, dated 2026).

Legend:
[1] = system: SU-DHL-10 cell line (human B cell lymphoma); experiment: Cell cytotoxicity in SU-DHL-10 cell line (CellTiter-Glo); assay type: cell-based; conditions: 72 h treatment, CTG
Experimental: Certain Example compounds of the invention and Comparator Compound 1 were tested in the SU-DHL-10 cell line (human B cell lymphoma). Compounds which show efficacy in this assay are expected to be useful as agents for treating or preventing hyperproliferative disorders such as cancer.
Cells were seeded in 96-well microplates and treated with compounds or cisplatin (as a positive control) at 9 increasing concentrations in technical triplicate. […] On day 1, 90 μL of various cell suspensions with the number of cells ranging from 5000-8000 cells/well were seeded into wells of a 96-well plate (Corning). The number of cells to be seeded was previously determined. • 2. All 96-wells plates with cells were placed in an incubator overnight at 37° C. with 5% CO2. • 3. On day 2, cells were observed under a microscope ensuring the cells treated with vehicle control were in good condition. • 4. A dilution series of the test compounds and cisplatin were prepared at 10× the final concentrations required. 10 μL/well of 10× compound solution was added to the corresponding plates. The final volume was 100 μL/well for all the plates. Final DMSO concentration was 0.1%. • 5. On day 5 (after 72 hours of incubation), 50 μL of CTG reagent was added to each well. • 6. Contents were mixed for 5 minutes on an orbital shaker to facilitate cell lysis. • 7. The plate was allowed to incubate at room temperature for 10 minutes to stabilize luminescent signals.
Luminescence was recorded using an EnVision Multi Label Reader. Data analysis was performed using GraphPad Prism 8.0.
To calculate IC50, a concentration-response curve was generated using a nonlinear regression model with a sigmoidal concentration response. The formula for calculating the % of viable cells was shown below, and the IC50s are automatically generated by GraphPad Prism 8.0.
(LumTest article=luminescence in test article treated well; LumNone treated=luminescence in vehicle treated well; LumMedium control=luminescence in a well containing only medium and no cells; LumNone treated-LumMedium control was set as 100%)

[2] = Caco-2 cell permeability assay; assay type: in vitro ADME; conditions: human, Caco-2, pH 7.4, basal to apical Papp, pH 7.4, 2.5 h
Experimental: (§1) Certain Example compounds and Comparative Example 1 were tested for their apical to basal (AB) and basal to apical (BA) permeability in Caco-2 cells.
(§2) Cell Culture: Caco-2 cells were grown for 10 days in 96-well plates in HBSS buffer containing 10 mM HEPES. Both the apical and basal pH was buffered at pH 7.4. The apical/basal volumes were 75 μl and 250 μl respectively. The incubation time was 2.5 h at 37° C. (without shaking) under 5% CO2 & 95% relative humidity.
(§3) Cell Seeding: Cells were seeded at a density of 18750 cells/well (membrane area=0.0804 cm^2) in a 96 well plate.
(§4) AB Assay: 75 μl of cell suspension was added at a density 2.5×10^5 cells/ml to the apical wells. 40 ml media was added to the feeder tray. The plates were placed in the incubator (37° C., 5% CO2 and controlled humidity). The Caco-2 cells were grown for 10 days with a media change on every alternate day.
(§5) BA Assay: 25 μl of cell suspension was added at a density of 7.5×10^5 cells/ml to the bottom side (keeping the plate upside down) of apical wells. The plate (upside down position) was placed in the incubator (37° C., 5% CO2 and 95% Relative humidity) for 2 h. The plate was turned right side up. 75 μl media was added to the apical wells and 40 ml media to the feeder tray.
(§6) Permeablity Assay: The apical and basal wells were washed with buffer (pH 7.4) and 250 μl buffer was added to the wells of the basal plate. 75 μl of compound solution (2 μM, dissolved in water with 1% DMSO) was transferred to the apical wells (n=2). The apical plate was placed onto the basal plate. The lid was placed on to prevent evaporation. The assembly was incubated at 37° C. for 2.5 h (without shaking) under 5% CO2 and 95% relative humidity. After incubation the apical plate was separated from the basal plate. Aliquots were taken out from the acceptor and donor wells, diluted and quantified using LC-MS/MS along with initial donor samples.
(§7) Membrane Integrity Test: Solution in the apical wells was discarded by inverting the plate and soaking onto tissue paper. 250 μl buffer (pH 7.4) was added to each well of basal plate and 75 μl of Lucifer Yellow (LY; 0.1 mg/ml) in buffer (pH 7.4) to the wells of apical plate. The apical plate was placed onto the basal plate and the lid used to prevent evaporation. The assembly was incubated at 37° C. for 1 h (without shaking) under 5% CO2 and 95% relative humidity. The apical plate was separated from the basal plate. Fluorescence (Ex: 432 nm, Em: 530 nm) of aliquots (100 ul) was measured from basal wells. Fluorescence of 100 μl buffer (pH 7.4) and 100 μl LY(0.1 mg/ml) was also measured. Wells having more than 1% fluorescence intensity with respect to 0.1 mg/ml LY were considered non-integrated membrane. Such wells, if any, were not considered for permeability calculation.
(§8) Calculation: Drug was detected and quantified by LC-MS/MS. Data generated took the form of an apparent permeability (Papp) value. Papp=[Va/(AreaxTime)]×(LC-MS Area of Acceptor sample×Sample dilution factor/LC-MS Area of Initial Donor). Va=Volume of Acceptor Well (in ml)=0.25, Vd=Volume of Donor Well (in ml)=0.075, Area=Surface area of the membrane (cm2)=0.0804, Time=Time of incubation (sec)=9000 Results: The results of the assay are shown in Table 3 below.

[3] = system: Caco-2 cells; experiment: Caco-2 cell permeability assay; assay type: in vitro ADME; conditions: 2 μM, pH 7.4, 2.5 h; for Caco-2 A-B: apical to basal Papp; for Caco-2 B-A: basal to apical Papp
Experimental: as §1, §2, §3, §4, §5, §6, §7, §8

SMILES	IC50 ([1]; Homo sapiens, SU-DHL10, 72 h)	Papp B→A at 2.5 h, 2 μM [2]	Caco-2 A-B [3]	Caco-2 B-A [3]	IC50 [1]
CCNCc1cnc2ccc(-c3ccc(F)cc3OCCc3c(C(C)(C)O)nn(C)c3C)cn12 [Example 22, 2-{4-[2-(2-{3-[(ethylamino)methyl]imidazo[1,2-a]pyridin-6-yl}-5-fluorophenoxy)ethyl]-1,5-dimethyl-1H-pyrazol-3-yl}propan-2-ol]	9 nM	–	–	–	–
Cc1c(CCOc2cc(F)ccc2-c2ccc3ncc(CN(C)C)n3c2)c(C(C)(C)O)nn1C [Example 19, 2-(4-(2-(2-(3-((dimethylamino)methyl)imidazo[1,2-a]pyridin-6-yl)-5-fluorophenoxy)ethyl)-1,5-dimethyl-1H-pyrazol-3-yl)propan-2-ol]	–	29.4 ×10⁻⁶ cm/s	3.5 ×10⁻⁶ cm/s	–	–
Cc1c(CCOc2c(-c3ccc4ncc(CN)n4c3)ccc(F)c2F)c(C(C)(C)O)nn1C [Example 20, 2-[4-(2-{6-[3-(aminomethyl)imidazo[1,2-a]pyridin-6-yl]-2,3-difluorophenoxy}ethyl)-1,5-dimethyl-1H-pyrazol-3-yl]propan-2-ol]	12 nM	–	–	–	–
Cc1c(CCOc2cc(F)ccc2-c2ccc3ncc(CN(C)C)n3c2)c(C(O)C(C)C)nn1C (centres unmarked) [Example 24, 1-(4-(2-(2-(3-((dimethylamino)methyl)imidazo[1,2-a]pyridin-6-yl)-5-fluorophenoxy)ethyl)-1,5-dimethyl-1H-pyrazol-3-yl)-2-methylpropan-1-ol]	0.7 nM	–	–	–	–
Cc1c(CCOc2c(-c3ccc4ncc(CN)n4c3)ccc(F)c2F)c(C(O)C(C)(C)C)nn1C (centres unmarked) [Example 17, 1-(4-(2-(6-(3-(aminomethyl)imidazo[1,2-a]pyridin-6-yl)-2,3-difluorophenoxy)ethyl)-1,5-dimethyl-1H-pyrazol-3-yl)-2,2-dimethylpropan-1-ol]	1 nM	–	–	–	–
CNCc1cnc2ccc(-c3ccc(F)cc3OCCc3c(C(O)C(C)(C)C)nn(C)c3C)cn12 (single isomer, unassigned) [Example 10, 1-(4-(2-(5-fluoro-2-(3-((methylamino)methyl)imidazo[1,2-a]pyridin-6-yl)phenoxy)ethyl)-1,5-dimethyl-1H-pyrazol-3-yl)-2,2-dimethylpropan-1-ol]	–	–	0.305 ×10⁻⁶ cm/s	8.89 ×10⁻⁶ cm/s	2 nM
Cc1c(CCOc2cc(F)ccc2-c2ccc3ncc(CN(C)C)n3c2)c(C(C)O)nn1C (single isomer, unassigned) [Example 3, 1-(4-(2-(2-(3-((dimethylamino)methyl)imidazo[1,2-a]pyridin-6-yl)-5-fluorophenoxy)ethyl)-1,5-dimethyl-1H-pyrazol-3-yl)ethan-1-ol]	–	22.6 ×10⁻⁶ cm/s	1.2 ×10⁻⁶ cm/s	–	9.4 nM
Cc1c(CCOc2cc(F)ccc2-c2ccc3ncc(CCN)n3c2)c(C(C)(C)O)nn1C [Example 23, 2-(4-(2-(2-(3-(2-aminoethyl)imidazo[1,2-a]pyridin-6-yl)-5-fluorophenoxy)ethyl)-1,5-dimethyl-1H-pyrazol-3-yl)propan-2-ol]	–	9.7 ×10⁻⁶ cm/s	0 ×10⁻⁶ cm/s	–	–
Cc1c(CCOc2cc(F)ccc2-c2ccc3ncc(CN(C)C)n3c2)c(C(C)O)nn1C (single isomer, unassigned) [Example 4, 1-(4-(2-(2-(3-((dimethylamino)methyl)imidazo[1,2-a]pyridin-6-yl)-5-fluorophenoxy)ethyl)-1,5-dimethyl-1H-pyrazol-3-yl)ethan-1-ol]	12 nM	–	1.3 ×10⁻⁶ cm/s	24.9 ×10⁻⁶ cm/s	–
CNCc1cnc2ccc(-c3ccc(F)cc3OCCc3c(C(O)C(C)(C)C)nn(C)c3C)cn12 (single isomer, unassigned) [Example 9, 1-(4-(2-(5-fluoro-2-(3-((methylamino)methyl)imidazo[1,2-a]pyridin-6-yl)phenoxy)ethyl)-1,5-dimethyl-1H-pyrazol-3-yl)-2,2-dimethylpropan-1-ol]	–	8.02 ×10⁻⁶ cm/s	0.26 ×10⁻⁶ cm/s	–	0.6 nM
CNCc1cnc2ccc(-c3ccc(F)c(F)c3OCCc3c(C(O)C(C)(C)C)nn(C)c3C)cn12 (single isomer, unassigned) [Example 13, 1-(4-(2-(2,3-difluoro-6-(3-((methylamino)methyl)imidazo[1,2-a]pyridin-6-yl)phenoxy)ethyl)-1,5-dimethyl-1H-pyrazol-3-yl)-2,2-dimethylpropan-1-ol]	–	–	–	–	0.7 nM
CNCc1cnc2ccc(-c3ccc(F)c(F)c3OCCc3c(C(O)C(C)C)nn(C)c3C)cn12 (centres unmarked) [Example 25, 1-{4-[2-(2,3-difluoro-6-{3-[(methylamino)methyl]imidazo[1,2-a]pyridin-6-yl}phenoxy)ethyl]-1,5-dimethyl-1H-pyrazol-3-yl}-2-methylpropan-1-ol]	1 nM	–	–	–	–
CNCc1cnc2ccc(-c3ccc(F)cc3OCCc3c(C(C)(C)O)nn(C)c3C)cn12 [Example 18, 2-(4-(2-(5-fluoro-2-(3-((methylamino)methyl)imidazo[1,2-a]pyridin-6-yl)phenoxy)ethyl)-1,5-dimethyl-1H-pyrazol-3-yl)propan-2-ol]	5.3 nM	21.1 ×10⁻⁶ cm/s	0.3 ×10⁻⁶ cm/s	–	–
Cc1c(CCOc2c(-c3ccc4ncc(CN(C)C)n4c3)ccc(F)c2F)c(C(O)C(C)(C)C)nn1C (single isomer, unassigned) [Example 16, 1-(4-(2-(6-(3-((dimethylamino)methyl)imidazo[1,2-a]pyridin-6-yl)-2,3-difluorophenoxy)ethyl)-1,5-dimethyl-1H-pyrazol-3-yl)-2,2-dimethylpropan-1-ol]	–	–	1.395 ×10⁻⁶ cm/s	9.06 ×10⁻⁶ cm/s	0.2 nM
Cc1c(CCOc2cc(F)ccc2-c2ccc3ncc(CN(C)C)n3c2)c(C(O)C(C)(C)C)nn1C (centres unmarked) [Example 11, 1-(4-(2-(2-(3-((dimethylamino)methyl)imidazo[1,2-a]pyridin-6-yl)-5-fluorophenoxy)ethyl)-1,5-dimethyl-1H-pyrazol-3-yl)-2,2-dimethylpropan-1-ol]	0.9 nM	78 ×10⁻⁶ cm/s	15.9 ×10⁻⁶ cm/s	–	–
CNCc1cnc2ccc(-c3ccc(F)cc3OCCc3c(C(O)C(C)(C)C)nn(C)c3C)cn12 (centres unmarked) [Example 8, 1-(4-(2-(5-fluoro-2-(3-((methylamino)methyl)imidazo[1,2-a]pyridin-6-yl)phenoxy)ethyl)-1,5-dimethyl-1H-pyrazol-3-yl)-2,2-dimethylpropan-1-ol]	0.7 nM	–	–	–	–
